In US20250221966A1, “RXFP1 AGONISTS” (BRISTOL-MYERS SQUIBB COMPANY, priority 2021, published 2025):
Counter-ions that a name gives are not always drawn. Like-named read-outs stand apart in the source and are kept apart here.

Target: T1, human RXFP1 (Homo sapiens, UniProt Q9HBX9)
T1 construct: expressed in transfected cells
T1 sequence (Q9HBX9 1-757): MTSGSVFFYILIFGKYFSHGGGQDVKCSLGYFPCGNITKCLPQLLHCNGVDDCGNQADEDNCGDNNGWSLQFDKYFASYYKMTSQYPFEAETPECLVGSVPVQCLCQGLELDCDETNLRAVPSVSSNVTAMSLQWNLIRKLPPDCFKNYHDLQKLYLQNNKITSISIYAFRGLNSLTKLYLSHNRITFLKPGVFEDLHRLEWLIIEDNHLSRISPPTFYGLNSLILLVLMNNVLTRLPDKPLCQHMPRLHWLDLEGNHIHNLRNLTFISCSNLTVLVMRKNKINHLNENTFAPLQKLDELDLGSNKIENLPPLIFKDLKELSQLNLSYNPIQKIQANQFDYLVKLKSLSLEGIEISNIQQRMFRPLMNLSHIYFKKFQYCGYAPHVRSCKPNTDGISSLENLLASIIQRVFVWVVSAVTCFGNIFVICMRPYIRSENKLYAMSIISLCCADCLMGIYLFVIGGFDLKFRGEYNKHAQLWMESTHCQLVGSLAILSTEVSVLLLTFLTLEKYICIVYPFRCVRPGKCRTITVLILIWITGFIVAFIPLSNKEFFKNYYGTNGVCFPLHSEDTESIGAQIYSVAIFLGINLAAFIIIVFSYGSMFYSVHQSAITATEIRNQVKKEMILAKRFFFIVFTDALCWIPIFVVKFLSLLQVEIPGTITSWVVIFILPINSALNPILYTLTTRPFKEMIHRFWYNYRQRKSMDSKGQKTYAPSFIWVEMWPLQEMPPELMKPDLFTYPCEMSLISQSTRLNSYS
Assay: RXFP1 cAMP assay (hRXFP1 HEK293 cAMP assay, HTRF)
Type: cell-based
How it was run: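 HEK293 cells stably expressing human RXFP1 were suspended in HBSS (Ca/Mg) with 20 mM HEPES, 0.05% BSA and 0.5 mM IBMX, then treated with compounds (0.010 nM–50 μM, 2% DMSO final) for 30 min at room temperature. Intracellular cAMP was measured by HTRF, and potency was derived from 4-parameter logistic fits.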

[1] = HEK293 cells stably expressing human RXFP1, 30 min at room temperature, read-out: cAMP hRXFP1 HEK293 Assay EC50

SMILES | EC50 [1] | EC50 (cAMP hRXFP1 HEK293 Assay EC50, HEK293 cells stably expressing human RXFP1, 30 min at room temperature)
COc1ccc(C2=NOC3COCC23)cc1C(=O)N[C@H]1[C@@H](C(=O)NCc2ccccc2C#N)[C@H]2CC[C@@H]1/C2=C\C1CC1 (stereo partly drawn) [compound 613] | 137 nM | 
COc1ccc(C2=NOC(CO)C2CO)cc1C(=O)N[C@H]1[C@@H](C(=O)Nc2ccc(F)c(C(F)(F)F)c2)[C@H]2CC[C@@H]1/C2=C\C1CC1 (single isomer, unassigned) [compound 481] | 6.7 nM | 
COc1ccc(-c2cc(CC(=O)O)ccc2F)cc1C(=O)N[C@@H]1C2CCC(C2=C(C)C)[C@@H]1C(=O)Nc1ccc(F)c(C(F)(F)F)c1 (stereo partly drawn) [compound 155] | 87 nM | 
COc1ncc(-c2ccc(OC)c(C(=O)N[C@@H]3C4CCC(/C4=C/C4CC4)[C@@H]3C(=O)Nc3ccc(F)c(C(F)(F)F)c3)c2)cn1 (stereo partly drawn) [compound 279] | 15 nM | 
COc1ccc(-c2cccn3c(C(=O)OCc4ccccc4)cnc23)cc1C(=O)N[C@@H]1C2CCC(/C2=C/C(F)(F)F)[C@@H]1C(=O)Nc1ccc(F)c(C(F)(F)F)c1 (stereo partly drawn) [compound 315] | 60 nM | 
COc1ccc(C2=NOC3COCC23)cc1C(=O)N[C@H]1[C@@H](C(=O)N[C@H](CF)C2(C)CC2)[C@H]2CC[C@@H]1/C2=C\C1CC1 (stereo partly drawn) [compound 771] | 3.8 nM | 
COc1ccc(C2=NOC3COCC23)cc1C(=O)N[C@H]1[C@@H](C(=O)N[C@H](C)C2(C)CC2(F)F)[C@H]2CC[C@@H]1/C2=C\C1CC1 (stereo partly drawn) [compound 770] | 3.6 nM | 
COc1ccc(-c2cnc3n2CC(O)CC3)cc1C(=O)N[C@H]1[C@@H](C(=O)Nc2ccc(F)c(C(F)(F)F)c2)[C@H]2CC[C@@H]1/C2=C\C1CC1 (stereo partly drawn) [compound 752] | 2.5 nM | 
COc1ccc(-c2cc(C(OC(=O)NC(C)(C)C)C(=O)O)ccc2F)cc1C(=O)N[C@H]1[C@@H](C(=O)Nc2ccc(F)c(C(F)(F)F)c2)[C@H]2CC[C@@H]1/C2=C\C1CC(F)(F)C1 (stereo partly drawn) [compound 935] | 2.5 nM | 
COc1ccc(C2=NOC(C(=O)O)C2)cc1C(=O)N[C@@H]1C2CCC(/C2=C/C2CCC2)[C@@H]1C(=O)Nc1ccc(F)c(C(F)(F)F)c1 (stereo partly drawn) [compound 387] | 11 nM | 
COc1ccc(-c2cc(C(=O)N3CCCC3)ccc2F)cc1C(=O)N[C@@H]1C2CCC(/C2=C/c2cnoc2)[C@@H]1C(=O)Nc1ccc(F)c(C(F)(F)F)c1 (stereo partly drawn) [compound 191] | 42 nM | 
COc1ccc(C2CC3COCC32)cc1C(=O)N[C@H]1[C@@H](C(=O)Nc2ccc(F)c(C(F)(F)F)c2)[C@H]2CC[C@@H]1/C2=C\C1CC1 (single isomer, unassigned) [compound 729] | 82 nM | 
COc1ccc(C2=NOC3CC(C(N)=O)CC23)cc1C(=O)N[C@H]1[C@@H](C(=O)Nc2ccc(F)c(C(F)(F)F)c2)[C@H]2CC[C@@H]1/C2=C\C1CC1 (single isomer, unassigned) [compound 459] | 2.5 nM | 
COc1ccc(-c2cc(C(=O)O)ccc2F)cc1C(=O)N[C@@H]1C2CCC(/C2=C/c2cn(Cc3ccccc3)nn2)[C@@H]1C(=O)Nc1ccc(F)c(C(F)(F)F)c1 (stereo partly drawn) [compound 326] | 2270 nM | 
COc1ccc(-c2ccn(CC(=O)O)n2)cc1C(=O)N[C@@H]1C2CCC(/C2=C/C(F)(F)F)[C@@H]1C(=O)Nc1ccc(F)c(C(F)(F)F)c1 (stereo partly drawn) [compound 342] | 390 nM | 
COc1c(F)cc(C2=NOC3CC(O)(C(F)(F)F)CC23)cc1C(=O)N[C@H]1[C@@H](C(=O)Nc2ccc(F)c(C(F)(F)F)c2)[C@H]2CC[C@@H]1/C2=C\C1CC(F)(F)C1 (stereo partly drawn) [compound 914] | 7.8 nM | 
COc1ccc(C23COC(C(=O)O)(C2)C3)cc1C(=O)N[C@H]1[C@@H](C(=O)Nc2ccc(F)c(C(F)(F)F)c2)[C@H]2CC[C@@H]1/C2=C\C(F)(F)F [Example 724, 4-(3-(((1R,2R,3S,4R,Z)-3-((4-fluoro-3-(trifluoromethyl)phenyl)carbamoyl)-7-(2,2,2-trifluoroethylidene)bicyclo[2.2.1]heptan-2-yl)carbamoyl)-4-methoxyphenyl)-2-oxabicyclo[2.1.1]hexane-1-carboxylic acid] | 5000 nM | 
COc1ccc(-c2ccc(C(=O)O)cc2)cc1C(=O)N[C@H]1[C@@H](C(=O)Nc2ccc(F)c(C(F)(F)F)c2)[C@H]2CC[C@@H]1C2=C(C)C [compound 83] |  | 66 nM
COc1ccc(-c2ccnc3c2ncn3CC(=O)O)cc1C(=O)N[C@@H]1C2CCC(/C2=C/C(F)(F)F)[C@@H]1C(=O)Nc1ccc(F)c(C(F)(F)F)c1 (stereo partly drawn) [compound 314] | 5 nM | 
COc1cccc(/C=C2\C3CCC2[C@H](C(=O)Nc2ccc(F)c(C(F)(F)F)c2)[C@@H]3NC(=O)c2cc(F)c(F)cc2OC)c1 (stereo partly drawn) [compound 19] | 720 nM | 
COc1ccc(C2CC3CN(C(=O)OC(C)(C)C)CC32)cc1C(=O)N[C@H]1[C@@H](C(=O)Nc2ccc(F)c(C(F)(F)F)c2)[C@H]2CC[C@@H]1/C2=C\C1CC1 (single isomer, unassigned) [compound 730] | 263 nM | 

Further molecules by falling EC50 [1], results first:

EC50 [1] | EC50 (cAMP hRXFP1 HEK293 Assay EC50, HEK293 cells stably expressing human RXFP1, 30 min at room temperature) | SMILES
1700 nM |  | COc1cc(F)c(F)cc1C(=O)N[C@@H]1C2CCC(/C2=C/C=C/CCO)[C@@H]1C(=O)Nc1ccc(F)c(C(F)(F)F)c1 (stereo partly drawn) [compound 67]
789 nM |  | O=C(N[C@H]1[C@@H](C(=O)Nc2ccc(F)c(C(F)(F)F)c2)[C@H]2CC[C@@H]1/C2=C\C1CC1)c1cc(C2=NOC3CC(CO)CC23)ccc1F (single isomer, unassigned) [compound 692]
675 nM |  | COc1ccc(C2CCCN2C(=O)C(C)(C)O)cc1C(=O)N[C@@H]1C2CCC(C2=CC2CC2)[C@@H]1C(=O)Nc1ccc(F)c(C(F)(F)F)c1 (stereo partly drawn) [compound 688]
300 nM |  | COc1ccc(-c2cc(C(=O)NCC(=O)O)ccc2F)cc1C(=O)N[C@@H]1C2CCC(C2=C(C)C)[C@@H]1C(=O)Nc1ccc(F)c(C(F)(F)F)c1 (stereo partly drawn) [compound 193]
108 nM |  | COc1ccc(C2CCN(CC(C)(C)O)C2)cc1C(=O)N[C@@H]1C2CCC(C2=CC2CC2)[C@@H]1C(=O)Nc1ccc(F)c(C(F)(F)F)c1 (stereo partly drawn) [compound 601]
49 nM |  | COc1ccc(C2=NOC(CC(=O)O)C2)cc1C(=O)N[C@@H]1C2CCC(/C2=C/C2CCC2)[C@@H]1C(=O)Nc1ccc(F)c(C(F)(F)F)c1 (stereo partly drawn) [compound 394]
47 nM |  | CCC=C1C2CCC1[C@H](C(=O)Nc1ccc(F)c(C(F)(F)F)c1)[C@@H]2NC(=O)c1cc(F)c(F)cc1OC (stereo partly drawn) [compound 47]
17.2 nM |  | COc1ccc(C2=NOC(C3(O)CCC3)C2)cc1C(=O)N[C@H]1[C@@H](C(=O)Nc2ccc(F)c(C(F)(F)F)c2)[C@H]2CC[C@@H]1/C2=C\C1CC1 (single isomer, unassigned) [compound 515]
13 nM |  | COc1ccc(C2=NOC3COCC23)cc1C(=O)N[C@H]1[C@@H](C(=O)NC(C)(C)C(C)(C)C)[C@H]2CC[C@@H]1/C2=C\C1CC1 (stereo partly drawn) [compound 508]
9.5 nM |  | COc1ccc(C2=NOC3CC(CO)CC23)cc1C(=O)N[C@H]1[C@@H](C(=O)NC2CCCC2)[C@H]2CC[C@@H]1/C2=C\C1CC1 (stereo partly drawn) [compound 493]
5 nM |  | COc1ccc(-c2ccc(N3CCOCC3)c(C(=O)O)c2)cc1C(=O)N[C@H]1[C@@H](C(=O)Nc2ccc(F)c(C(F)(F)F)c2)[C@H]2CC[C@@H]1/C2=C\C1CC1 [Example 249, 3′-(((1R,2R,3S,4R,Z)-7-(cyclopropylmethylene)-3-((4-fluoro-3-(trifluoromethyl)phenyl)carbamoyl)bicyclo[2.2.1]heptan-2-yl)carbamoyl)-4′-methoxy-4-morpholino-[1,1′-biphenyl]-3-carboxylic acid, TFA]
3 nM |  | COc1ccc(C2=NOC3COCC23)cc1C(=O)N[C@H]1[C@@H](C(=O)Nc2ccc(F)c(C(F)(F)F)c2)[C@H]2CC[C@@H]1/C2=C\c1cnoc1 (stereo partly drawn) [compound 802]
2.5 nM |  | COc1ccc(C2=NOC3CC(C(O)C(F)(F)F)CC23)cc1C(=O)N[C@H]1[C@@H](C(=O)Nc2ccc(F)c(C(F)(F)F)c2)[C@H]2CC[C@@H]1/C2=C\C1CC1 (stereo partly drawn) [compound 848]
2.4 nM |  | COc1ccc(-c2cc([C@H](O)C(F)(F)F)ccc2F)cc1C(=O)N[C@H]1[C@@H](C(=O)Nc2ccc(F)c(C(F)(F)F)c2)[C@H]2CC[C@@H]1/C2=C\C1CCCC1 [compound 920]
2.1 nM |  | COc1ccc(C2=NOC3CC(CO)CC23)cc1C(=O)N[C@H]1[C@@H](C(=O)N[C@H](C)C2(C)CC2)[C@H]2CC[C@@H]1/C2=C\c1ccncn1 (stereo partly drawn) [compound 807]
2 nM |  | COc1ccc(-c2cc(C(OC(=O)N3CCC3)C(F)(F)F)ccc2F)cc1C(=O)N[C@@H]1C2CCC(/C2=C/C2CC2)[C@@H]1C(=O)Nc1ccc(F)c(C(F)(F)F)c1 (stereo partly drawn) [compound 216]
1.2 nM |  | COc1ccc(C2=NOC3CC(C(C)O)CC23)cc1C(=O)N[C@H]1[C@@H](C(=O)Nc2ccc(F)c(C(F)(F)F)c2)[C@H]2CC[C@@H]1/C2=C\C1CC1 (stereo partly drawn) [compound 844]
0.8 nM |  | COc1ccc(C2=NOC3COCC23)cc1C(=O)N[C@H]1[C@@H](C(=O)N[C@H](C)C2(C)CC2)[C@H]2CC[C@@H]1/C2=C\C1CC1 (stereo partly drawn) [Example 447]
